In patent US20130030017A1, “QUINOLINE DERIVATIVES AS ANTIBACTERIAL AGENTS” (priority 2005, published 2013):
In brackets after ≈: the same amount, converted by molar mass.

Assays:
[1] = tested on: Listeria monocytogenes (ATCC49594); assay: Microtitre plate assay, IC90 determination (LMO 49594); assay type: cell-based; settings: 90% inhibitory concentration for bacterial growth, 37° C., 24 hours, resazurin fluorescence
Description: (§1) The bacteria used in this study were grown overnight in flasks containing 100 ml Mueller-Hinton Broth (Becton Dickinson—cat. no. 275730) in sterile de-ionized water, with shaking, at 37° C. Stocks (0.5 ml/tube) were stored at −70° C. until use. Bacteria titrations were performed in microtiter plates and colony forming units (CFUs) were determined. In general, an inoculum level of approximately 100 CFUs was used for susceptibility testing.
(§2) Flat-bottom, sterile 96-well plastic microtiter plates were filled with 180 μl of sterile deionized water, supplemented with 0.25% BSA. Subsequently, stock solutions (7.8× final test concentration) of compounds were added in 45 μl volumes in column 2 Serial five-fold dilutions (45 μl in 180 μl) were made directly in the microtiter plates from column 2 to reach column 11. Untreated control samples with (column 1) and without (column 12) inoculum were included in each microtiter plate. Depending on the bacteria type, approximately 10 to 60 CFU per well of bacteria inoculum (100 TCID50), in a volume of 100 μl in 2.8× Mueller-Hinton broth medium, was added to the rows A to H, except column 12. The same volume of broth medium without inoculum was added to column 12 in row A to H. The cultures were incubated at 37° C. for 24 hours under a normal atmosphere (incubator with open air valve and continuous ventilation). At the end of incubation, one day after inoculation, the bacterial growth was quantitated fluorometrically. Therefore resazurin (0.6 mg/ml) was added in a volume of 20 μl to all wells 3 hours after inoculation, and the plates were re-incubated overnight. A change in colour from blue to pink indicated the growth of bacteria. The fluorescence was read in a computer-controlled fluorometer (Cytofluor Biosearch) at an excitation wavelength of 530 nm and an emission wavelength of 590 nm. The % growth inhibition achieved by the compounds was calculated according to standard methods. The IC90 (expressed in μg/ml) was defined as the 90% inhibitory concentration for bacterial growth.

[2] = tested on: Streptococcus pyogens (ATCC8668); assay: Microtitre plate assay, IC90 determination (SPY 8668); assay type: cell-based; settings: 90% inhibitory concentration for bacterial growth, 37° C., resazurin fluorescence; for IC90 SPY 8668: 24 hours; for IC90: Streptococcus, ATCC8668, 24 h
Procedure, shortened: (§3)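 Five-fold serial compound dilutions in water with 0.25% BSA, inoculated with ~10-60 CFU/well in Mueller-Hinton broth and incubated 24 h at 37 °C in air. Growth read by resazurin fluorescence (ex 530/em 590 nm), resazurin added 3 h post-inoculation; IC90 in μg/ml = 90% growth inhibition.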

[3] = tested on: Staphylococcus aureus (ATCC25923); assay: Microtitre plate assay, IC90 determination (STA 25923); assay type: cell-based; settings: 90% inhibitory concentration for bacterial growth, 37° C., 24 hours, resazurin fluorescence
Description: as §1
Flat-bottom, sterile 96-well plastic microtiter plates were filled with 180 μl of sterile deionized water, supplemented with 0.25% BSA. Subsequently, stock solutions (7.8× final test concentration) of compounds were added in 45 μl volumes in column 2 Serial five-fold dilutions (45 μl in 180 μl) were made directly in the microtiter plates from column 2 to reach column 11. Untreated control samples with (column 1) and without (column 12) inoculum were included in each microtiter plate. […] At the end of incubation, one day after inoculation, the bacterial growth was quantitated fluorometrically. […] The fluorescence was read in a computer-controlled fluorometer (Cytofluor Biosearch) at an excitation wavelength of 530 nm and an emission wavelength of 590 nm. The % growth inhibition achieved by the compounds was calculated according to standard methods. […]

[4] = tested on: Staphylococcus aureus (ATCC29213); assay: Microtitre plate assay, IC90 determination (STA 29213); assay type: cell-based; settings: 90% inhibitory concentration for bacterial growth, 37° C., resazurin fluorescence; for IC90 STA 29213: 24 hours
Procedure, shortened: as §3

[5] = tested on: Streptococcus pneumoniae (ATCC6305); assay: Microtitre plate assay, IC90 determination (SPN 6305); assay type: cell-based; settings: 90% inhibitory concentration for bacterial growth, 37° C., resazurin fluorescence; for IC90 SPN 6305: 24 hours
Procedure, shortened: as §3

[6] = tested on: methicilline resistant Staphylococcus aureus (MRSA) (a clinical isolate from the University of Antwerp); assay: Microtitre plate assay, IC90 determination (STA RMETH); assay type: cell-based; settings: 90% inhibitory concentration for bacterial growth, 37° C., 24 hours, resazurin fluorescence
Description: as §1, §2

[7] = tested on: Pseudomonas aeruginosa (ATCC27853); assay: Microtitre plate assay, IC90 determination (PAE 27853); assay type: cell-based; settings: 90% inhibitory concentration for bacterial growth, 37° C., resazurin fluorescence; for IC90 PAE 27853: 24 hours
Procedure, shortened: as §3

[8] = tested on: Bacillus subtilis (ATCC43639); assay: Microtitre plate assay, IC90 determination (BSU 43639); assay type: cell-based; settings: 90% inhibitory concentration for bacterial growth, 37° C., 24 hours, resazurin fluorescence
Description: as §1, §2

[9] = tested on: Enterococcus faecalis (ATCC29212); assay: Microtitre plate assay, IC90 determination (EFA 29212); assay type: cell-based; settings: 90% inhibitory concentration for bacterial growth, 37° C., resazurin fluorescence; for IC90 EFA 29212: 24 hours
Procedure, shortened: as §3

SMILES | IC90 LMO 49594 [1] [µg/mL] | IC90 SPY 8668 [2] [µg/mL] | IC90 STA 25923 [3] [µg/mL] | IC90 STA 29213 [4] [µg/mL] | IC90 SPN 6305 [5] [µg/mL] | IC90 STA RMETH [6] [µg/mL] | IC90 PAE 27853 [7] [µg/mL] | IC90 BSU 43639 [8] [µg/mL] | IC90 EFA 29212 [9] [µg/mL] | IC90 [1] [µg/mL] | IC90 [2] [µg/mL] | IC90 [6] [µg/mL] | IC90 ([7]; Pseudomonas aeruginosa, ATCC27853, 24 h) [µg/mL] | IC90 ([9]; Enterococcus faecalis, ATCC29212, 24 h) [µg/mL] | melting point [°C] | IC90 ([5]; Streptococcus pneumoniae, ATCC6305, 24 h) [µg/mL] | IC90 ([4]; Staphylococcus aureus, ATCC29213, 24 h) [µg/mL]
COc1nc2ccc(Br)cc2cc1C(c1ccccc1)C(O)(CCc1ccccc1)CCN(C)C (racemic) [Compound 14] | 10.6 (≈ 19.9 µM) | 10.6 (≈ 19.9 µM) | 11.9 (≈ 22.3 µM) | 13.4 (≈ 25.1 µM) | 42.4 (≈ 79.5 µM) | 13.4 (≈ 25.1 µM) | 9.5 (≈ 17.8 µM) | 13.4 (≈ 25.1 µM) | 9.5 (≈ 17.8 µM) | – | – | – | – | – | – | – | –
COc1nc2ccc(Br)cc2cc1C(c1ccccc1)C(O)(CCc1ccccc1)CCN(C)C (racemic) [Compound 15] | 2.1 (≈ 3.94 µM) | 4.2 (≈ 7.87 µM) | 4.8 (≈ 9 µM) | 4.8 (≈ 9 µM) | 7.5 (≈ 14.1 µM) | 10.6 (≈ 19.9 µM) | 4.8 (≈ 9 µM) | 10.6 (≈ 19.9 µM) | 4.8 (≈ 9 µM) | – | – | – | – | – | – | – | –
COc1nc2ccc(Br)cc2cc1C(c1ccccc1)C(O)(CCc1ccc(F)cc1)CCN(C)C (racemic) [Compound 50] | 8.7 (≈ 15.8 µM) | 1.7 (≈ 3.08 µM) | – | 1.7 (≈ 3.08 µM) | 0.4 (≈ 0.725 µM) | 8.7 (≈ 15.8 µM) | 1.7 (≈ 3.08 µM) | 9.8 (≈ 17.8 µM) | 1.7 (≈ 3.08 µM) | – | – | – | – | – | – | – | –
COc1nc2ccc(Br)cc2cc1C(c1ccccc1)C(O)(CCc1ccc(C)cc1)CCN(C)C (racemic) [Compound 53] | – | 1.7 (≈ 3.1 µM) | – | 1.7 (≈ 3.1 µM) | 1.7 (≈ 3.1 µM) | 13.8 (≈ 25.2 µM) | 3.9 (≈ 7.12 µM) | – | 6.9 (≈ 12.6 µM) | – | – | – | – | – | – | – | –
COc1nc2ccc(Br)cc2cc1C(c1ccccc1)C(O)(CCc1cccc2ccccc12)CCN(C)C (stereo not shown) [Compound 8] | – | – | – | 1.9 (≈ 3.26 µM) | 11.6 (≈ 19.9 µM) | – | – | – | – | 1.9 (≈ 3.26 µM) | 1.9 (≈ 3.26 µM) | 1.9 (≈ 3.26 µM) | 2.3 (≈ 3.94 µM) | 1.9 (≈ 3.26 µM) | 160 | – | –
COc1nc2ccc(Br)cc2cc1C(c1ccc(C)cc1)C(O)(CCc1ccccc1)CCN(C)C (stereo not shown) [Compound 65] | – | – | – | 3.9 (≈ 7.12 µM) | – | – | 1.7 (≈ 3.1 µM) | – | 1.7 (≈ 3.1 µM) | – | 1.7 (≈ 3.1 µM) | 10.9 (≈ 19.9 µM) | – | – | – | 0.8 (≈ 1.46 µM) | –
COc1nc2ccc(Br)cc2cc1C(c1ccc(C)cc1)C(O)(CCc1ccccc1)CCN(C)C (stereo not shown) [Compound 66] | – | 1.7 (≈ 3.1 µM) | – | 1.7 (≈ 3.1 µM) | 0.8 (≈ 1.46 µM) | 12.3 (≈ 22.5 µM) | 43.5 (≈ 79.4 µM) | – | 9.7 (≈ 17.7 µM) | – | – | – | – | – | – | – | –
COc1nc2ccc(Br)cc2cc1C(c1ccc(Cl)cc1)C(O)(CCc1ccccc1)CCN(C)C (stereo not shown) [Compound 69] | – | 4.0 (≈ 7.04 µM) | – | – | 0.5 (≈ 0.88 µM) | – | 1.8 (≈ 3.17 µM) | – | 1.8 (≈ 3.17 µM) | – | – | 12.7 (≈ 22.4 µM) | – | – | – | – | 1.8 (≈ 3.17 µM)
COc1nc2ccc(Br)cc2cc1C(c1ccc(Cl)cc1)C(O)(CCc1ccccc1)CCN(C)C (stereo not shown) [Compound 70] | – | 45.1 (≈ 79.4 µM) | – | 1.8 (≈ 3.17 µM) | 1.8 (≈ 3.17 µM) | 12.7 (≈ 22.4 µM) | 45.1 (≈ 79.4 µM) | – | 56.8 (≈ 100 µM) | – | – | – | – | – | – | – | –
COc1ccc(C(c2cc3cc(Br)ccc3nc2OC)C(O)(CCc2ccccc2)CCN(C)C)cc1 (stereo not shown) [Compound 74] | – | 1.8 (≈ 3.19 µM) | – | 1.8 (≈ 3.19 µM) | 1.8 (≈ 3.19 µM) | – | 1.8 (≈ 3.19 µM) | – | 1.8 (≈ 3.19 µM) | – | – | 12.6 (≈ 22.4 µM) | – | – | – | – | –
